Among the data in patent US20160362416A1, “ANTIVIRAL COMPOUNDS” (Gilead Sciences, Inc., priority 2012, published 2016) are EC50 and bioavailability values, retold here.

Data set [1] deals with stable HCV 1b RLuc replicon cells (genotype 1b Con1 replicon). The data set is described as follows: HCV genotype 1b RLuc replicon reporter assay. The note with it: Hepatitis C virus; stable genotype 1b Con1 RLuc replicon cells, 72 hours. It is filed as cell-based. The method in brief: (§1)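 Chimeric replicons for 3a and 4a use a Pi-RLuc reporter and were transiently transfected into Huh-Lunet cells; the 2b chimera (RLuc-Neo) was likewise transient in Huh-Lunet; 1b cells are stable. Cells were exposed to 3-fold serial compound dilutions for 72 h, then lysed. EC50s came from non-linear regression of Renilla luciferase signal.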
On the technique in general: A replicon is a self-replicating genome or part of one, used to study replication in cells.

Data set [2] concerns stable HCV 1a RLuc replicon cells (genotype 1a H77 replicon). The data set is described as follows: HCV genotype 1a RLuc replicon reporter assay. It is filed as cell-based. As to conditions: Hepatitis C virus; stable genotype 1a H77 RLuc replicon cells, 72 hours.
The subject of data set [3] is stable HCV 2a JFH-1 Rluc replicon cells (L31 present in NS5A). The data set is described as follows: HCV genotype 2a JFH-1 RLuc replicon reporter assay. It is filed as cell-based. As to conditions: Hepatitis C virus, 72 h, read-out: 2a JFH (nM).
Data set [4] relates to NS5A chimeric genotype 2a JFH-1 replicon with genotype 2a J6 strain NS5A gene (M31). The data set is described as follows: HCV genotype 2a J6 NS5A chimeric replicon assay, transient (t). Type of data set: cell-based. The note with it: Hepatitis C virus, 72 h, read-out: 2a J6 (t) (nM).
The test system of data set [5] is NS5A chimeric genotype 2a JFH-1 replicon with genotype 2b MD2b-1 strain NS5A gene (M31). The data set is described as follows: HCV genotype 2b NS5A chimeric replicon assay, transient (t). It is filed as cell-based. The note with it: Hepatitis C virus, 72 h, read-out: 2b (t) (nM). The method in brief: as §1
Data set [6] can be described thus: IV and PO single dose pharmacokinetic studies in SD rats. It is filed as in vivo. The note with it: Sprague-Dawley, rat, plasma, male SD rats, IV infusion 1 mg/kg, oral gavage 2 mg/kg, read-out: Rat % F. How it is done:
IV and PO Single Dose Pharmacokinetic Studies in SD Rats: The pharmacokinetics of selected compounds was characterized in male Sprague-Dawley (SD) rats (250-300 g). In this study, two groups of naïve purebred SD rats (N=3 per group, fasted over night) received the selected compound either as an intravenous (IV) infusion (1 mg/kg over 30 minutes) via the jugular vein or by oral gavage (2 mg/kg). The intravenous (IV) dosing vehicle was 5% ethanol, 35% polyethylene glycol 400 (PEG 400) and 60% water pH 2.0. The oral dosing vehicle was 5% ethanol, 55% PEG 400 and 40% citrate buffer pH 2.2.
Serial blood samples (approximately 0.3 mL each) were collected from jugular vein or other suitable vein at specified time points. For the IV infusion group, the blood samples were collected predose and at 0.25, 0.48, 0.58, 0.75, 1.5, 3, 6, 8, 12 and 24 hours after the start of infusion. For the oral group, the blood samples were collected predose and at 0.25, 0.50, 1, 2, 4, 6, 8, 12 and 24 hours after dosing. The blood samples were collected into Vacutainer™ tubes containing EDTA-K3 as the anti-coagulant and were centrifuged at approximately 4° C. to obtain plasma. The plasma samples were stored at −20° C. until analysis by LC/MS/MS.
A bioanalytical method utilizing high performance liquid chromatography coupled to tandem mass spectrometry (LC/MS/MS) was developed for analysis of the selected compound in rat plasma. Detection was performed using selected reaction monitoring (SRM); Ions representing the precursor (M+H)^+ species was selected in quadrupole 1 (Q1) and collided with argon gas in the collision cell (Q2) to generate specific product ion, which was subsequently monitored by quadrupole 3 (Q3). Standard curve and quality control samples were prepared in male rat plasma and processed in the same way as the test samples to generate quantitative data.
Pharmacokinetic parameters were generated using non-compartmental pharmacokinetic analysis (Phoenix WinNonlin, version 6.3). Values below the lower limit of quantification (LLOQ) were assigned a value of zero if predose and treated as missing thereafter. Area under the curve (AUC) was calculated using the linear trapezoidal rule. The oral bioavailability (% F) was determined by comparison of the area under the curve (AUC) of the compound and/or a metabolite generated in plasma following oral administration to that generated following intravenous administration.

Data set [7] deals with L31V/Y93H in genotype 1b NS5A replicon. The data set is described as follows: Resistance mutant replicon assay, genotype 1b NS5A L31V/Y93H. Type of data set: cell-based, HCV. The note with it: Hepatitis C virus, read-out: 1b L31V/Y93H (nM). The method in brief:
(§2)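 Renilla luciferase activity in lysed cells after 72 h with 3-fold serially diluted compound gave EC50 by non-linear regression. Cells were Huh-7-derived cured-51, transiently transfected with mutant replicon RNA (1a or 1b Pi-RLuc backbone; 3a NS5A in 1b chimera) made by site-directed mutagenesis.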

Data set [8] relates to Q30R in genotype 1a NS5A replicon. The data set is described as follows: Resistance mutant replicon assay, genotype 1a NS5A Q30R. Type of data set: cell-based, HCV. The note with it: Hepatitis C virus, read-out: 1a Q30R (nM). How it is done: Evaluation of cell-based anti-HCV activity: Antiviral potency (EC50) was determined using a Renilla luciferase (RLuc)-based HCV replicon reporter assay. To perform the assay for genotype 1 and 2a JFH-1, stable HCV 1a RLuc replicon cells (harboring a dicistronic genotype 1a H77 replicon that encodes a RLuc reporter), stable HCV lb RLuc replicon cells (harboring a dicistronic genotype 1b Conl replicon that encodes a RLuc reporter), or stable HCV 2a JFH-1 Rluc replicon cells (harboring a dicistronic genotype 2a JFH-1 replicon that encodes a RLuc reporter; with L31 present in NS5A) were dispensed into 384-well plates for EC50 assays. To perform the assay for genotype 2a (with M31 present in NS5A) or 2b, NS5A chimeric genotype 2a JFH-1 replicons that encodes a RLuc-Neo reporter and either genotype 2a J6 strain NS5A gene or genotype 2b MD2b-1 strain NS5A gene (both with M31 present) respectively, were either transiently transfected (t) into Huh-Lunet cells or were established as stably replicating replicon cells (s) is provided. Either cells were dispensed into 384-well plates for EC50 assays. To perform the assay for genotype 3 and 4, NS5A chimeric genotype 1b Conl replicons that encodes a Pi-RLuc reporter and either genotype 3a S52 strain NS5A gene or genotype 4a ED43 strain NS5A gene respectively, were transiently transfected (t) into Huh-Lunet cells, which were subsequently dispensed into 384-well plates. Compounds were dissolved in DMSO at a concentration of 10 mM and diluted in DMSO either manually or using an automated pipeting instrument. Serially 3-fold diluted compounds were either manually mixed with cell culture media and added to the seeded cells or directly added to the cells using an automated instrument. DMSO was used as a negative (solvent; no inhibition) control, and the protease inhibitor ITMN-191 was included at a concentration >100×EC50 as a positive control. 72 hours later, cells were lysed and Renilla luciferase activity quantified as recommended by the manufacturer (Promega-Madison, Wis.). Non-linear regression was performed to calculate EC50 values.
To determine the antiviral potency (EC50) against resistance mutants, resistance mutations, including M28T, Q30R, Q30H, Q30E, L31M, Y93C, Y93H, and Y93N in genotype 1a NS5A, Y93H and L31V/Y93H in genotype 1b NS5A, and Y93H for in genotype 3a NS5A, were introduced individually into either 1a Pi-Rluc or 1b Pi-Rluc replicons by site directed mutagenesis. Replicon RNA of each resistant mutant was transiently transfected into Huh-7-derived cured-51 cells and antiviral potency was determined on these transfected cells as described above.

Data set [9] deals with Y93H in genotype 1a NS5A replicon. The data set is described as follows: Resistance mutant replicon assay, genotype 1a NS5A Y93H. It is filed as cell-based, HCV. As to conditions: Hepatitis C virus, read-out: 1a Y93H (nM). In outline: as §2
Data set [10] concerns Y93N in genotype 1a NS5A replicon. The data set is described as follows: Resistance mutant replicon assay, genotype 1a NS5A Y93N. Type of data set: cell-based, HCV. As to conditions: Hepatitis C virus, read-out: 1a Y93N (nM). The method in brief:
as §2

Data set [11] deals with NS5A chimeric genotype 2a JFH-1 replicon with genotype 2b MD2b-1 strain NS5A gene (M31). The data set is described as follows: HCV genotype 2b NS5A chimeric replicon assay, stable (s). Type of data set: cell-based. The note with it: Hepatitis C virus, 72 h, read-out: 2b (s) (nM).
Data set [12] deals with NS5A chimeric genotype 1b Con1 replicon with genotype 3a S52 strain NS5A gene. The data set is described as follows: HCV genotype 3a NS5A chimeric replicon assay. It is filed as cell-based. The note with it: Hepatitis C virus, 72 h, read-out: 3a (nM). The method in brief:
as §1

In data set [13] the test system is NS5A chimeric genotype 1b Con1 replicon with genotype 4a ED43 strain NS5A gene. The data set is described as follows: HCV genotype 4a NS5A chimeric replicon assay. It is filed as cell-based. The note with it: Hepatitis C virus, 72 h, read-out: 4a (s) (nM).
The test system of data set [14] is Q30E in genotype 1a NS5A replicon. The data set is described as follows: Resistance mutant replicon assay, genotype 1a NS5A Q30E. Type of data set: cell-based, HCV. As to conditions: Hepatitis C virus, read-out: 1a Q30E (nM). In outline:
as §2

The subject of data set [15] is Y93H in genotype 3a NS5A replicon. The data set is described as follows: Resistance mutant replicon assay, genotype 3a NS5A Y93H. Type of data set: cell-based, HCV. The note with it: Hepatitis C virus, read-out: 3a Y93H (nM). The method in brief:
as §2

Take `COC(=O)N[C@H](C(=O)N1[C@@H](C)CC[C@H]1c1ncc(-c2ccc3c(c2)COc2cc4c(ccc5nc([C@@H]6CCCN6C(=O)[C@@H](NC(=O)OC)C6CCOCC6)[nH]c54)cc2-3)[nH]1)C(C)C` [Comp 14, reference compound]: the EC50 in data set [1] came to 0.025 nM; in [2] it was 0.025 nM; in [3], 0.01 nM; in [4], 0.053 nM; in [5] it was 0.036 nM; in [7] it was 0.13 nM. Besides, the EC50 worked out at 1.2 nM in data set [8], 3.66 nM in [9] and 1.75 nM in data set [10]. In addition, the bioavailability in [6] was found to be 6.88%.

On to `COC(=O)N[C@H](C(=O)N1[C@@H](C)CC[C@H]1c1ncc(-c2ccc3c(c2)COc2cc4c(ccc5nc([C@@H]6CC[C@H](C)N6C(=O)[C@@H](NC(=O)OC)[C@@H]6CCCOC6)[nH]c54)cc2-3)[nH]1)C(C)C` [Example AJ, Methyl{(1S)-2-[(2S,5S)-2-methyl-5-(9-{2-[(2S,5S)-1-{(2S)-2-[(methoxycarbonyl)amino]-3-methylbutanoyl}-5-methylpyrrolidin-2-yl]-1H-imidazol-5-yl}-1,11-dihydroisochromeno[4′,3′:6,7]naphtho[1,2-d]imidazol-2-yl)pyrrolidin-1-yl]-2-oxo-1-[(3S)-tetrahydro-2H-pyran-3-yl]ethyl}carbamate], for which the EC50 in data set [1] was determined as 0.021 nM; in data set [2], 0.016 nM; in [3], 0.019 nM; in data set [4], 0.059 nM; in data set [11] it was 0.057 nM; in data set [12], 0.035 nM. The EC50 was determined as 0.018 nM in [13]; 44 nM in data set [7]; 0.16 nM in data set [8]; 2.7 nM in [14]; 4.3 nM in data set [10]; 3.73 nM in [15].
